The results in this text go back to PubChem BioAssay AID328 (DTP/NCI, 2004).

In the experiment the test system is BDF1 mice, P388 leukemia ip, median survival T/C. In words: NCI In Vivo Anticancer Drug Screen. Data for tumor model P388 Leukemia (intraperitoneal) in B6D2F1 (BDF1) mice. Particulars: endpoint: median survival time, higher = longer survival. The method, boiled down:
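Mice carrying the transplantable tumour receive compound or vehicle. Survival is followed in each arm, and the treated measure is divided by the vehicle measure.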

Where [1] appears, read: dose: 25.0 mg/kg/injection, schedule: Q01DX009 (ip), vehicle: saline.
The mark [2] stands for this setting: dose: 50.0 mg/kg/injection, schedule: Q01DX009 (ip), vehicle: saline.
[3] abbreviates: dose: 50.0 mg/kg/injection, schedule: Q01DX009 (ip), vehicle: saline with Tween-80.
Setting [4] is: dose: 100.0 mg/kg/injection, schedule: Q01DX009 (ip), vehicle: saline with Tween-80.
Where [5] appears, read: dose: 200.0 mg/kg/injection, schedule: Q01DX009 (ip), vehicle: saline with Tween-80.
Where [6] appears, read: dose: 100.0 mg/kg/injection, schedule: Q01DX009 (ip), vehicle: Klucel (hydroxypropylcellulose) (HPC).
Where [7] appears, read: dose: 200.0 mg/kg/injection, schedule: Q01DX009 (ip), vehicle: Klucel (hydroxypropylcellulose) (HPC).

SMILES strings stand for the structures. Values joined by “and” are separate entries in the source; they are usually repeats but may differ in a detail not shown here. Equal values may be shown once. Inconclusive results and toxic doses are left out. Positions of bridges follow the written chain, without caps; N, C: chain ends. Non-standard residues stand in square brackets, D forms with d. Residues, ends and D or L forms follow the SMILES beside them. Aib = CC(C)(N)C(=O)O

As for `Nc1ccc(CCCCc2ccccc2)cc1`, the T/C reads like this: (dose: 7.03 mg/kg/injection, schedule: Q04DX003 (ip), vehicle: saline) 104 % of control; (dose: 12.5 mg/kg/injection, schedule: Q01DX009 (ip), vehicle: saline) 109 % of control; (dose: 14.06 mg/kg/injection, schedule: Q04DX003 (ip), vehicle: saline) 113 % of control; under setting [1], 113 % of control; (dose: 28.12 mg/kg/injection, schedule: Q04DX003 (ip), vehicle: saline) 109 % of control; under setting [2], 113 % of control. Besides, the T/C is 116 % of control (dose: 56.25 mg/kg/injection, schedule: Q04DX003 (ip), vehicle: saline) and 109 % of control (dose: 75.0 mg/kg/injection, schedule: Q01DX009 (ip), vehicle: saline).
Turning to `O=[N+]([O-])c1ccc(N/N=C/CCl)c([N+](=O)[O-])c1`, the T/C reads like this: (dose: 6.25 mg/kg/injection, schedule: Q04DX003 (ip), vehicle: saline with Tween-80) 120 % of control; (dose: 12.5 mg/kg/injection, schedule: Q04DX003 (ip), vehicle: saline with Tween-80) 120 % of control; (dose: 16.5 mg/kg/injection, schedule: Q04DX003 (ip), vehicle: saline with Tween-80) 118 % of control; (dose: 25.0 mg/kg/injection, schedule: Q04DX003 (ip), vehicle: saline with Tween-80) 118 % of control.
With `NC(=O)Oc1cccc(OC(N)=O)c1`, the T/C runs as follows: (dose: 12.5 mg/kg/injection, schedule: Q04DX003 (ip), vehicle: water) 106 % of control; (dose: 25.0 mg/kg/injection, schedule: Q04DX003 (ip), vehicle: water) 106 % of control; (dose: 50.0 mg/kg/injection, schedule: Q04DX003 (ip), vehicle: water) 111 % of control; (dose: 100.0 mg/kg/injection, schedule: Q04DX003 (ip), vehicle: water) 106 % of control.
As to `CCc1ccc(NC(=O)c2ccccc2C(=O)O)cc1`, the T/C is, setting by setting: (dose: 100.0 mg/kg/injection, schedule: Q04DX003 (ip), vehicle: saline with Tween-80) 122 % of control; (dose: 200.0 mg/kg/injection, schedule: Q04DX003 (ip), vehicle: saline with Tween-80) 104 % of control; (dose: 400.0 mg/kg/injection, schedule: Q04DX003 (ip), vehicle: saline with Tween-80) 109 % of control.
Regarding `COc1ccc(Oc2nc(=O)n3ccccc3n2)cc1`, the T/C reads like this: under setting [3], 93 % of control; under setting [4], 90 % of control; under setting [5], 88 % of control.
As to `CC(C)CC1NC(=O)CNC(=O)C(C)(C)NC(=O)C(C(C)C)NC(=O)C(C)(C)NC(=O)C(CCC(N)=O)NC(=O)C(C)NC(=O)C(C)(C)NC(=O)C(C)NC(=O)C(C)(C)NC(=O)C2CCCN2C(=O)CCC(C(=O)NC(CCC(N)=O)C(=O)O)NC(=O)C(C)(C)NC(=O)C(C)(C)NC(=O)C(C(C)C)NC(=O)C2CCCN2C(=O)C(C)(C)NC1=O` (stereo unspecified) (P[Aib]A[Aib]AQ[Aib]V[Aib]GL[Aib]PV[Aib][Aib]EQ-OH; lactam N-17; configuration not given here), the T/C by setting is: (dose: 1.25 mg/kg/injection, schedule: Q01DX009 (ip), vehicle: water) 118 % of control; (dose: 2.5 mg/kg/injection, schedule: Q01DX009 (ip), vehicle: water) 102 % of control.
In the case of `CCN(/C=C/C=C(C#N)C#N)CC`, the T/C is, setting by setting: under setting [3], 109 % of control; under setting [4], 88 % of control.
For `C(=N\Nc1nc2ccccc2o1)/c1ccncc1`, the T/C under setting [6] was 100 % of control and 104 % of control; the T/C (dose: 100.0 mg/kg/injection, schedule: Q04DX003 (ip), vehicle: Klucel (hydroxypropylcellulose) (HPC)) was 100 % of control; the T/C under setting [7] is 109 % of control; the T/C (dose: 200.0 mg/kg/injection, schedule: Q04DX003 (ip), vehicle: Klucel (hydroxypropylcellulose) (HPC)) is 95 % of control; the T/C (dose: 400.0 mg/kg/injection, schedule: Q01DX009 (ip), vehicle: Klucel (hydroxypropylcellulose) (HPC)) was 105 % of control and 109 % of control; the T/C (dose: 400.0 mg/kg/injection, schedule: Q04DX003 (ip), vehicle: Klucel (hydroxypropylcellulose) (HPC)) was 100 % of control.
As to `Nc1cc(Nc2cccc(Cl)c2)nc(N)n1`, the T/C under setting [3] was 86 % of control.
For `CCO/C=C1\SC(=S)N(Cc2ccccc2)C1=O`, the T/C (dose: 12.5 mg/kg/injection, schedule: Q01DX009 (ip), vehicle: other) is 86 % of control; the T/C (dose: 25.0 mg/kg/injection, schedule: Q01DX009 (ip), vehicle: other) is 109 % of control; the T/C (dose: 44.0 mg/kg/injection, schedule: Q04DX003 (ip), vehicle: other) is 118 % of control; the T/C (dose: 44.0 mg/kg/injection, schedule: Q04DX003 (ip), vehicle: saline + alcohol) is 100 % of control; the T/C (dose: 44.0 mg/kg/injection, schedule: Q04DX003 (ip), vehicle: saline with Tween-80) was 118 % of control; the T/C (dose: 100.0 mg/kg/injection, schedule: Q04DX003 (ip), vehicle: saline + alcohol) is 104 % of control. The T/C runs as follows: (dose: 150.0 mg/kg/injection, schedule: Q04DX003 (ip), vehicle: other) 154 % of control; (dose: 150.0 mg/kg/injection, schedule: Q04DX003 (ip), vehicle: saline + alcohol) 95 % of control; (dose: 150.0 mg/kg/injection, schedule: Q04DX003 (ip), vehicle: saline with Tween-80) 116 % of control.
As for `NC(=O)c1ccc(NC(=O)/C=C/C(=O)Nc2ccc(C(N)=O)cn2)nc1`, the T/C by setting is: (dose: 0.08 mg/kg/injection, schedule: Q01DX009 (ip), vehicle: saline) 115 % of control; (dose: 0.17 mg/kg/injection, schedule: Q01DX009 (ip), vehicle: saline) 120 % of control; (dose: 0.35 mg/kg/injection, schedule: Q01DX009 (ip), vehicle: saline) 105 % of control; (dose: 0.7 mg/kg/injection, schedule: Q01DX009 (ip), vehicle: saline) 103 % of control; (dose: 1.4 mg/kg/injection, schedule: Q01DX009 (ip), vehicle: saline) 107 % of control; (dose: 1.65 mg/kg/injection, schedule: Q01DX009 (ip), vehicle: saline with Tween-80) 113 % of control. Moreover, the T/C is 117 % of control (dose: 2.5 mg/kg/injection, schedule: Q01DX009 (ip), vehicle: saline with Tween-80); 94 % of control (dose: 3.75 mg/kg/injection, schedule: Q01DX009 (ip), vehicle: saline with Tween-80); 86 % of control (dose: 4.5 mg/kg/injection, schedule: Q04DX003 (ip), vehicle: saline); 104 % of control (dose: 5.62 mg/kg/injection, schedule: Q01DX009 (ip), vehicle: saline); 108 % of control (dose: 9.0 mg/kg/injection, schedule: Q04DX003 (ip), vehicle: saline); 100 % of control (dose: 18.0 mg/kg/injection, schedule: Q04DX003 (ip), vehicle: saline). Also, the T/C runs as follows: (dose: 26.0 mg/kg/injection, schedule: Q04DX003 (ip), vehicle: saline) 112 % of control; (dose: 40.0 mg/kg/injection, schedule: Q04DX003 (ip), vehicle: saline) 108 % of control.
With `CC(C)c1ccccc1OS(=O)(=O)c1ccc([N+](=O)[O-])cc1`, the T/C (dose: 100.0 mg/kg/injection, schedule: Q04DX003 (ip), vehicle: saline sonified) is 90 % of control; the T/C (dose: 200.0 mg/kg/injection, schedule: Q04DX003 (ip), vehicle: saline sonified) is 95 % of control; the T/C (dose: 400.0 mg/kg/injection, schedule: Q04DX003 (ip), vehicle: saline sonified) is 95 % of control.
Consider `O=C(O)c1cc(-c2cccc3ccccc23)nc2cc3ccccc3cc12`, for which the T/C under setting [4] is 99 % of control and the T/C under setting [5] is 108 % of control.
For the compound `NCCc1cnc2ccccc2n1`, the T/C by setting is: (dose: 18.0 mg/kg/injection, schedule: Q01DX009 (ip), vehicle: saline) 96 % of control; under setting [1], 100 % of control; (dose: 25.0 mg/kg/injection, schedule: Q04DX003 (ip), vehicle: saline) 100 % of control; (dose: 37.0 mg/kg/injection, schedule: Q01DX009 (ip), vehicle: saline) 92 % of control; under setting [2], 120 % of control; (dose: 50.0 mg/kg/injection, schedule: Q04DX003 (ip), vehicle: saline) 100 % of control. Moreover, the T/C (dose: 100.0 mg/kg/injection, schedule: Q04DX003 (ip), vehicle: saline) is 100 % of control.
Turning to `S=C(Nc1ccc(Cl)c(Cl)c1)N1c2ccccc2-n2cccc2C1c1cccnc1` (stereo unspecified), the T/C was 124 % of control (dose: 50.0 mg/kg/injection, schedule: Q01DX009 (ip), vehicle: Klucel (hydroxypropylcellulose) (HPC)); 121 % of control under setting [6]; 117 % of control under setting [7].
